Laboratory results: the METLIN SMRT retention time set (Domingo-Almenara et al. 2019)

Assay: gradient 5% acetonitrile 3 min, to 50% in 2 min, to 85% in 15 min, held 3 min, 100 µL/min
Conditions: column: Zorbax Extend-C18 2.1 x 50 mm; eluents: water / acetonitrile, 0.1% formic acid
In short: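 Retention times of pure standards were taken from adduct peaks that were selected by computer and manually inspected. Over 3 months, mixtures of ~100 molecules were run by HPLC–quadrupole time-of-flight mass spectrometry in positive and negative ionization mode. The Zorbax Extend-C18 column (2.1 × 50 mm, 1.8 μm) ran at 100 μL/min in water and acetonitrile, each containing 0.1% formic acid, with 40 μL dead volume and 900 μL dwell volume.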

Structure (SMILES)	RP-LC retention time [s]
Cc1nnc(-c2cn(CC(=O)Nc3ccc(F)cc3F)c3ccccc23)o1	747
COc1cc(NS(=O)(=O)c2ccc(NC(=O)c3ccc(Cl)cc3)cc2)nc(OC)n1	868
Cc1cc(C(=O)NCc2ccccc2)nc2cc(-c3cccs3)nn12	1080
O=C1NC2(CCN(C(=O)Nc3ccc(F)cc3)CC2)Oc2ccccc21	742
CC(=O)N1CCc2sc(C(=O)N3CCN(c4ccccn4)CC3)cc2C1	575
O=C(CN1C(=O)NC2(CCCCC2)C1=O)NCc1ccc2c(c1)OCO2	699
Cc1cccc(-c2noc(CN3C(=O)COc4cc(C)ccc43)n2)c1	1110
O=C([C@@H]1C[C@H](F)CN1C(=O)Nc1ccccc1)N1CCCCC1	653
Cc1cc(Cl)ccc1NC(=O)C1CCN(S(=O)(=O)c2ccc3c(c2)NC(=O)CO3)CC1	839
Cc1nn(-c2ccccc2)c2c1N(CC(=O)NC(C)c1ccccc1)C(=O)CS2 (stereo unspecified)	845
COc1ccc(CNC(=O)C2(C)CCCN(S(=O)(=O)c3cccc(C)c3)C2)cc1 (stereo unspecified)	935
Cn1cc(CCNC(=O)NCc2ccco2)c2cccnc21	593
COCCNc1c(-c2ccc(OC)cc2)nc2sc(C(=O)N(C)C)c(C)n12	698
O=C(NCCN1CCOCC1)C1CCCN(c2ncnc3c2nc2n3CCCCC2)C1 (stereo unspecified)	575
O=C(NC1CC1)C1CCN(c2nc3ccc(-c4cccc(F)c4)nc3s2)CC1	918
CC(C)n1c(N2CCN(C(=O)c3cc4ccccc4[nH]3)CC2)cc(=O)n(C(C)C)c1=O	915
COc1ccc(CCNC(=O)N2CC3CC2C(=O)O3)cc1 (stereo unspecified)	625
CN1C2CCC1CC(OC(c1ccc(F)cc1)c1ccc(F)cc1)C2 (stereo unspecified)	838
Cc1ccccc1N1CCN(c2ncc(C(=O)O)c(C)n2)CC1	1040
O=C(CCc1nc(-c2ccc(N3CCCC3)cc2)no1)NCCC1=CCCCC1	1170
CCCc1noc(-c2cccnc2N2CCCN(Cc3ccccc3Cl)CC2)n1	737
COC(=O)[C@H](Cc1c[nH]c2ccccc12)NC(=O)c1cccc(-n2cnnn2)c1	753
Cn1c(=O)n(CC(=O)N2CCCCCC2)c(=O)c2cnc(-c3ccccc3)nc21	987

Structure (SMILES)	RP-LC retention time [s]
Cc1oc2ccn(Cc3ccc(F)cc3)c(=O)c2c1C(=O)NCc1ccco1	975
O=C(c1ccc(SCCN2CCCCC2)nc1)N1CCN(c2ncccn2)CC1	605
CCOc1ccccc1CNc1nc2ccncc2n(CC)c1=O	683
CCSCC[C@@H](NC(=O)CCc1c(C)c2ccc(O)c(C)c2oc1=O)C(=O)O	680
CCOC(=O)c1nc(N2CCN(Cc3ccccc3)CC2)c2ccccc2n1	623
O=C(Nc1ccccc1)C1CCCN(c2nnc3ccccn23)C1 (stereo unspecified)	598
CCn1c(=O)c(NCc2ccc(C)c(C)c2)nc2ccncc21	672
CC1CCN(C(=O)C2N(C(C)C)C(=O)C23CCCC3)CC1 (stereo unspecified)	737
COc1ccc(OCc2nc(-c3ccc(NS(C)(=O)=O)cc3)no2)cc1	868
O=C(c1cccc(Br)c1)N1CCc2nc(-c3ccccc3)ncc2C1	1020
O=C(C1CCN(c2cnn(Cc3ccccc3)c(=O)c2)CC1)N1CCc2ccccc2C1	829
CCSc1nnc(-c2nn(C)c3c2CN(C(=O)c2ccc(F)cc2)CC3)n1C	750
COC(=O)c1c(-c2ccccc2)noc1N1CCOCC1	860
Cc1ccc(N2C(=O)C3N=NN(Cc4nc(-c5ccc6c(c5)OCO6)no4)C3C2=O)cc1 (stereo unspecified)	957
COc1ccc(NC(=O)N2CC=C(c3cn(C(C)C)c4ncccc34)CC2)cc1OC	826
Cc1noc(-c2cccc(OC3CN(C(=O)NC4CCCCC4)C3)c2)n1	891
Cc1ccc(Cn2nnc(-c3noc(C)n3)c2C)cc1	860
O=C(Nc1ccc(F)cc1Cl)c1cnc(-c2ccccc2)nc1-c1ccncc1	976
Cn1c(-c2cccc(C(=O)NC3CCCCCC3)c2)nc2cccnc21	780
COc1ccccc1CNC(=O)c1cn(-c2cc(N3CCOCC3)ncn2)cn1	757
CCS(=O)(=O)N1CCCc2cc(C(=O)N3CCCCCC3)ccc21	824
O=C(Nc1cc(F)ccc1F)N1CCCC1c1nc(-c2ccccc2)no1 (stereo unspecified)	1020
CC(=O)N1CCCc2cc(S(=O)(=O)N3CCC(C(=O)NCC4CCCO4)CC3)ccc21 (stereo unspecified)	658

Structure (SMILES)	RP-LC retention time [s]
COc1ccccc1CC(=O)N1CCCC1c1cc(C(C)C)on1 (stereo unspecified)	902
Cc1ccc(C)c(C(=O)N2CCCC(COc3ccc(C(=O)NC4CC4)cc3)C2)c1 (stereo unspecified)	849
O=C(C1CCOC1)N1CCC2(CC1)NCCc1c2[nH]c2ccccc12 (stereo unspecified)	608
CCN(CC)C(=O)CSc1c(C(C)C)cnc2c1c(=O)n(C)c(=O)n2C	898
Cc1ccc(S(=O)(=O)c2cnc(N3CCC(C(N)=O)(N4CCCCC4)CC3)nc2N)cc1C	654
O=C(NCCc1c[nH]c2ccc(Cl)cc12)Nc1ccccc1	879
Cc1cc(C)cc(-n2ccn(Cc3nc(-c4ccc(Cl)cc4)no3)c(=O)c2=O)c1	960
COCC(=O)N1CCC2(CCC2O)CC1 (stereo unspecified)	577
COc1ccc(N2CCN(C(=O)CN3C(=O)CCc4cc(Br)ccc43)CC2)cc1	829
CCC(=O)N1CCC2(CC1)CC(CC(=O)N(C)C)CCO2 (stereo unspecified)	598
Cc1cc(NC(=O)N2CCCC(C)(C(=O)NCc3ccc(F)cc3)C2)ccc1Br (stereo unspecified)	1050
O=C([C@@H]1C[C@H](F)CN1C(=O)c1cccs1)N1CCCCC1	662
CCc1cccc(NC(=O)N2CCCC2c2nc(-c3ccccc3OC)no2)c1 (stereo unspecified)	970
CCCN1CCN(C(=O)C2CCN(S(=O)(=O)c3ccc4c(c3)NC(=O)CO4)CC2)CC1	586
CCn1c(=O)c(N2CCC(NC(=O)Nc3ccccc3Br)CC2)nc2ccccc21	1030
O=C(Nc1cnn(-c2ncncc2N2CCSCC2)c1)NC1CCCCC1	742
COc1cccc(S(=O)(=O)N2CCC(c3noc(-c4ccccc4C)n3)CC2)c1	1140
CCc1ccc(OCC(=O)Nc2cnn(CC)c(=O)c2N2CCCCC2)cc1	1240
COc1ccc(S(=O)(=O)N2C[C@@H]3C[C@H](NC(=O)c4cccs4)[C@H]2C3)cc1Cl	792
CCC(C)N(CC(=O)N1CCc2sccc2C1COc1cccc(F)c1)C(C)=O (stereo unspecified)	754
Cc1ccc(S(=O)(=O)N2CCC(CN3CCCC(C)C3)CC2)cc1F (stereo unspecified)	702
CCOC(=O)CCNC(=O)N1CCC(OC2CCN(Cc3ccccc3)CC2)CC1	607
COc1cccc(CN2CCC(N3C[C@H](OC)[C@@H]3c3cccnc3)CC2)n1	504

Structure (SMILES)	RP-LC retention time [s]
CC(C)(C)CC(C)(C)NC(=O)C1CCN(C(=O)c2ccccc2F)CC1	920
Cc1ccc(S(=O)(=O)N2CCCC2)cc1-c1nnc(-c2ccccc2Cl)o1	1070
CC(NC(=O)c1cc(-c2ccc(F)cc2)cn1C)c1cccnc1 (stereo unspecified)	680
CC1CCCCN1CCNC(=O)c1cc2c(s1)N(C)CCCC2 (stereo unspecified)	672
Cc1nc(C)c(C(=O)N2CCc3cc(-c4csc(C5CC5)n4)ccc32)s1	1020
CCc1noc(-c2c(S(=O)(=O)NC3CCCC3)c(C)n(C)c2C)n1	833
O=C(C1CCC1)N1CCCC(OCc2nc(-c3ccccc3)no2)C1 (stereo unspecified)	791
CC(=O)Nc1onc(C)c1-c1ccc(C)c(S(=O)(=O)Nc2ccc(F)cc2C)c1	806
O=C(Cn1c(=O)c(CCC(=O)NC2CC2)nc2ccccc21)Nc1cc(F)cc(F)c1	774
COc1ccccc1-c1noc(C2CCCN2C(=O)Nc2ccc3c(c2)OCO3)n1 (stereo unspecified)	812
COc1ccc(OC)c(S(=O)(=O)N2CCC([C@H]3[C@@H](OC)C(=O)N3C(C)C)CC2)c1	809
O=C(CSc1ncccn1)N1CCCC1	591
Fc1ccc(-c2nc3cnc(Br)cn3c2Nc2ccc3c(c2)OCCO3)cc1	961
CCC(C)N(CCNC(=O)Cc1noc2ccccc12)Cc1ccco1 (stereo unspecified)	664
COc1ccc(N2CC(C(=O)NCc3ccccc3OC)CC2=O)cc1 (stereo unspecified)	724
CN(C)C(=O)Cc1ccc(NC(=O)Cc2ccc(-c3ccccc3)cc2)cc1	795
O=C(CN1CCN(Cc2ccc(F)cc2)C1=O)NCCc1ccccc1Cl	847
O=C(CC1CCCC1)Nc1cnc(-c2cccnc2)nc1	689
CCn1cc(S(=O)(=O)N2CCCCC2c2nc(-c3cccnc3)n[nH]2)cn1 (stereo unspecified)	615
O=C(NC1CCCC1)c1cn(-c2ncccc2-c2nc(-c3ccccc3)no2)cn1	867
Cc1cc(NC(=O)C2CCCN(c3ccc(-n4cccn4)nn3)C2)no1 (stereo unspecified)	654
O=C(Cn1ccn2nc(-c3ccccc3)c(CO)c2c1=O)Nc1ccc(Cl)cc1	856
